Tests used:
podocytes [1] = assay: ICN1 induced podocyte apoptosis, AnnexinV staining; assay type: cell-based, mouse; settings: for ICN1 induced increase in annexinV positive cell number: tamoxifen 1.5 μM, counted 24 hrs after induction, GSIXX 4 μM, pifithrin-alpha 15 μM
Procedure: (§1) Infection of Podocytes. Cultivation of conditionally immortalized mouse podocytes was performed as described^41. Briefly, cells were propagated in the undifferentiated state on type1 collagen at 33° C. in RPMI 1640 in the presence of 10% FBS (Hyclone) and 20 U/ml interferon γ (Sigma Chemical Co., St Louis, Mo.). To induce differentiation, cells were maintained at 37° C. without interferon for 10 days. Podocytes were infected with MIGR-ICN1-EGFP (kind gift of Dr Warren Pear, University of Pennsylvania) or pBMN-EGFP (Orbigen) retrovirus. Briefly vectors were transfected into Phoenix Eco packaging cells (Orbigen) and supernatant was harvested 60-72 hrs after transfection. Podocytes were infected with virus containing supernatant (3-4 times, every 6 hours) in the presence of polybrene […]. After 24 hrs of infection, the medium was changed and cells were either treated with tamoxifen to induce ICN1 expression or left untreated. Infection efficiency was estimated under fluorescence microscope by the presence of GFP positive cells as it ranged from 70-80%.
AnnexinV staining. AnnexinV staining was performed using AnnexinV-Alexa 568 staining kit (Roche). Cells were cultured in 24 well plates, washed and incubated with AnnexinV-Alexa 568 in incubation buffer according to manufacturer's instruction. Cells were washed, and fluorescent labeled cells were counted. Total number of cells were counted by DAPI counterstain. Nuclear condensation was assessed by DAPI staining.

ICN1 = assay: TGFβ induced increase of ICN1 levels in cultured podocytes, Western blot; assay type: cell-based, mouse; settings: 5 ng/ml TGFβ; 100 nM GSI XX; 10 μM SB203580, PD or LY; GSI IX and GSI X data not shown
Procedure: as §1
Western Blotting. Cells were lysed in RIPA buffer in the presence of protease and phosphatase inhibitors; equal amount (30 μg) of protein was loaded on 10% SDS gels. Gels were transferred to PVDF membranes (Bio-Rad), blocked in 5% milk and incubated with the primary antibody (1:1,000 dilution) overnight at 4° C. in 1% milk. Membranes were incubated with HRP conjugated anti-mouse or anti-rabbit secondary antibody (Jackson Immunologicals) for 1 hr at room temperature and developed using ECL method (Pierce). The following primary antibodies were used in this study; phospho-p38 (#4631), total p38 (#9217), phospho-AKT (#4051), total AKT (#9272), cleaved PARP, cleaved caspase3, phospho-53 were from Cell Signaling, phospho-JNK, p53, p21 were from Santa Cruz Val^1744ICN1 and β-actin antibody was purchased from Abcam (Cambridge, Mass.).

[2] = tested on: Smad3 and Akt phosphorylation; assay: TGFβ induced Smad3 and Akt phosphorylation in podocytes, Western blot; assay type: cell-based, mouse; settings: 5 ng/ml TGFβ; GSI XX 1 μM
Procedure: as §1
(§2) Western Blotting. Cells were lysed in RIPA buffer in the presence of protease and phosphatase inhibitors; equal amount (30 μg) of protein was loaded on 10% SDS gels. Gels were transferred to PVDF membranes (Bio-Rad), blocked in 5% milk and incubated with the primary antibody (1:1,000 dilution) overnight at 4° C. in 1% milk. […]

p53 = assay: TGFβ induced phosphorylated p53 levels in podocytes, Western blot; assay type: cell-based, mouse; settings: after 4 hrs of incubation with TGFβ
Procedure: as §1, §2

podocytes [3] = assay: TGFβ induced podocyte apoptosis, annexinV positive cell number; assay type: cell-based, mouse; settings: 24 hrs following TGFβ; pre-incubation GSIXX 1 μM or pifithrinα 15 μM
Procedure: as §1
AnnexinV staining. AnnexinV staining was performed using AnnexinV-Alexa 568 staining kit (Roche). […] Cells were washed, and fluorescent labeled cells were counted. Total number of cells were counted by DAPI counterstain. Nuclear condensation was assessed by DAPI staining.

PAN treated rats = assay: PAN induced nephrotic syndrome in rats; assay type: in vivo, rat
Procedure: Male Sprague Dawley rats (75-100 gr˜4 weeks old) were purchased from Charles Rivers. Animals were injected with puromycin aminonucleoside 20 mg/kg ip ×1. BDZ (dissolved in Methocell, Tween-80) was administered ip 500 μg/100 gr rat once a day. Animals were sacrificed on day 8 after PAN administration.
Phenotypic analysis. Albuminuria was determined using Mouse or Rat Albumin specific ELISA kits (Exocell and Bethyl Laboratories) and urine creatinine was determined using Creatinine companion (Exocell), following manufacturer's protocol.
Histologic analysis. Histologic analysis was performed on formalin fixed paraffin embedded kidney sections that was stained with Periodic-Acid-Schiff (PAS) or Gomori Trichrome. Slides were examined and pictures were taken with Nikon Eclipse TE300 microscope and SPOT Diagnostic CCD camera. Transmission electron microscopy was performed in the Analytical Imaging Facility at AECOM on glutaraldehyde fixed, epoxy embedded kidney samples stained with uranyl acetate and lead citrate. Samples were evaluated using JEOL 1200EX, electron microscope (AECOM, Analytical Imaging Facility).
Immunohistochemistry. Immunohistochemistry was performed on formalin fixed paraffin embedded kidney sections using the following primary antibodies Val^1744ICN1 (Abcam), ICN2 (Abeam). Staining was visualized using peroxidase conjugated anti mouse of anti rabbit Vectastain Elite kit and DAB (Vector Labs). Terminal d-UTP labeling (TUNEL) staining was performed using TUNEL kit (Chemicon) following manufacturer's instructions. For fluorescent labeling, 5 μm frozen sections were fixed in ice cold acetone, blocked with 10% horse serum and incubated with primary antibodies, WT-1 (Santa Cruz), nephrin (kind gift of Dr Lawrence Holzman, University of Michigan), synaptopodin and podocin (Sigma-Aldrich), p21 (Santa Cruz), and developed using FITC conjugated anti-mouse secondary antibody or Cy3 conjugated anti-rabbit antibodies (Jackson laboratory) and mounted with Fluoromount).
Glomerular isolation. Glomerular isolation was performed using serial sieving of 120, 100 and 71 μm diameter.
QRT-PCR. RNA was prepared from isolated glomeruli or from podocytes using RNAeasy Mini kit (Qiagen, Valencia). The quality was analyzed on agarose gels and the quantity was measured on NanoDrop. 1 ug RNA was reverse transcribed using cDNA Archival Kit (Applied Biosystems). QRT-PCR analysis was performed using ABI 7900HT-Sequence Detection System. SYBR Green Master Mix and 3-step standard cycling conditions and sequence specific primers for QRT-PCR analysis were used. Melting curve was examined to verify that a single product was amplified. For quantitative analysis all samples were normalized to ubiquitin C and HPGRT gene expression using the ΔΔCT value method.
It was examined whether the Notch pathway inhibition (with the use of a gamma-secretase inhibitor) could be used as a potential strategy for the treatment of albuminuric glomerular disease^31. Rats we treated with DBZ 500 μg/100 gr ip. daily stating 12 hrs prior to PAN injection. Animals were sacrificed on day 8 as the PAN treated rats appeared moribund and most of them had severe nephrotic syndrome (ascites and edema). DBZ treatment normalized the Notch pathway gene expression increase of PAN treated rats (FIG. 1e, FIG. 12a). […] Similarly, expression of p53 and p21 was lower in BDZ treated rats compared to PAN only injected animals (FIG. 110.

Balb/c mice = assay: Adriamycin (doxorubicin) induced nephrotic syndrome of mice; assay type: in vivo, mouse; settings: male Balb/c mice, 12 days following 12 mg/kg doxorubicin (adriamycin); doxorubicin only 2659 μg/mg creatinine
Procedure: Adriamycin-induced nephrotic syndrome was induced in 8 weeks old male Balb/c mice (n=10/per each groups) via intravenous injection (to the tail vein) of 12 mg/kg adriamycin. Animals were sacrificed 12 days following the injection. All animal studies were approved by the Animal Care Committee at the Albert Einstein College of Medicine (AECOM). Animals were maintained under specific pathogen free conditions. Phenotypic analysis. Albuminuria was determined using Mouse or Rat Albumin specific ELISA kits (Exocell and Bethyl Laboratories) and urine creatinine was determined using Creatinine companion (Exocell), following manufacturer's protocol.

FA-treated mice = assay: Murine folic acid (FA)-induced nephrotoxicity model; assay type: in vivo, mouse; settings: FA mice treated for 1 week with DBZ
Procedure: Experiments were conducted using the murine folic acid (FA)-induced nephrotoxicity model, which is characterized by acute tubular injury followed by both tubular regeneration and chronic changes such as patchy interstitial fibrosis. Strong upregulation was found for mRNA levels of Notch 1-4, the ligands Jagged 1 and 2, delta like-1 and -4, and the downstream target genes Hes1, Hey1, and HeyL in total kidney homogenates 1 day after FA injection, which remained increased up to 1 week.
To further investigate the role of Notch in FA-induced renal injury, mice were treated for 1 week with the gamma-secretase inhibitor (GSI) dibenzazepine (DBZ) that blocks activation of the Notch pathway by interfering with Notch cleavage. […] In control kidneys, large numbers of interstitial fibroblasts and significant tubulointerstitial fibrosis were observed indicating a misdirected renal regeneration.

[4] = tested on: unilateral ureteral obstruction model; assay: Unilateral ureteral obstruction model of renal tubulointerstitial fibrosis; assay type: in vivo, mouse; settings: animals injected with GSI XX (DBZ)
Procedure: Increased Notch pathway gene expression was also observed in mouse models of chronic tubulointerstitial fibrosis (unilateral ureteral obstruction) and in patients with chronic renal disease and tubulointerstitial fibrosis. […] The role and regulation of Notch pathway genes were also examined in other models of tubulointerstitial fibrosis. […] To examine the role of Notch activation in this model, animals were injected with GSI XX (DBZ). DBZ reduced the expression of Notch target gene HeyL and reduced expression of pro-fibrotic genes collagen, fibronectin and alpha smooth muscle action.

p21 = assay: TGFβ induced p21 protein expression in podocytes, Western blot; assay type: cell-based, mouse; settings: after 24 hrs TGFβ
Procedure: as §1, §2

[5] = PAN rats, DBZ 500 μg/100 gr ip daily

## C[C@H](NC(=O)Cc1cc(F)cc(F)c1)C(=O)N[C@@H]1C(=O)N(C)c2ccccc2-c2ccccc21 [DBZ, (S,S)-2-[2-(3,5-Difluorophenyl)acetylamino]-N-(5-methyl-6-oxo-6,7-dihydro-5H-dibenzo[b,d]azepin-7-yl)propionamide]
Podocytes [1]; listed as GSI XX
  ICN1 induced increase in annexinV positive cell number: did not alter
Podocytes [1]; listed as GSIXX
  ICN1 induced increase in annexinV positive cell number: did not affect
ICN1
  TGFβ induced increase of ICN1 levels: fully sensitive
[2]
  TGFβ induced Smad3 and Akt phosphorylation: did not interfere
p53
  TGFβ induced increase of phosphorylated p53 levels: fully sensitive
Podocytes [3]
  TGFβ induced increase in annexinV positive cell number: prevented
PAN treated rats; DBZ 500 μg/100 gr ip daily from 12 hrs prior to PAN, QRT-PCR
  Notch pathway gene expression increase of PAN treated rats: normalized
PAN treated rats; PAN rats, 500 μg/100 gr ip daily, compared to PAN only, after 6 days
  albuminuria (albumin/creatinine ratio): significantly less
PAN treated rats; [5]
  foot process effacement (EM analysis): almost fully abrogated
  podocyte apoptosis (TUNEL staining): fully prevented
PAN treated rats; PAN rats, DBZ 500 μg/100 gr ip daily, day 8
  decrease in nephrin and podocin levels (mRNA and protein): protected
PAN treated rats; PAN rats, whole kidney lysates QRT-PCR, compared to PAN only
  expression of p53 and p21: lower
Balb/c mice
  albuminuria: 800 μg/mg creatinine
FA-treated mice
  FA-induced upregulation of fibrotic remodeling genes (TGF-β, fibronectin, MMP-2 and 9): greatly reduced
  increase in serum creatinine: did not affect
  rate of tubular apoptosis: did not affect
  rise in HeyL expression: completely blunted
  tubular damage scores: did not affect
[4]
  expression of Notch target gene HeyL: reduced
  expression of pro-fibrotic genes collagen, fibronectin and alpha smooth muscle action: reduced
  tubulointerstitial fibrosis (evaluated on PAS staining): reduced

## C[C@H](NC(=O)Cc1cc(F)cc(F)c1)C(=O)N[C@H](C(=O)OC(C)(C)C)c1ccccc1 [GSI IX, N—[N-(3,5-Difluorophenacetyl-L-alanyl)]-S-phenylglycine t-Butyl Ester]
ICN1
  TGFβ induced increase of ICN1 levels: fully sensitive

## CC(C)C[C@H](NC(=O)[C@H](Cc1ccccc1)C[C@@H](O)[C@H](Cc1ccccc1)NC(=O)OC(C)(C)C)C(=O)N[C@@H](Cc1ccccc1)C(N)=O [GSI X, {1S-Benzyl-4R-[1-(1S-carbamoyl-2-phenethylcarbamoyl)-1S-3-methylbutylcarbamoyl]-2R-hydroxy-5-phenylpentyl}carbamic Acid tert-butyl Ester]
ICN1
  TGFβ induced increase of ICN1 levels: fully sensitive

## COc1cccc(-c2cc(=O)c3ccccc3o2)c1N [PD98059]
ICN1
  TGFβ induced increase of ICN1 levels: not sensitive

## C[S+]([O-])c1ccc(-c2nc(-c3ccncc3)c(-c3ccc(F)cc3)[nH]2)cc1 (stereo not drawn) [SB203580]
Podocytes [1]
  ICN1 induced increase in annexinV positive cell number: did not alter
ICN1
  TGFβ induced increase of ICN1 levels: not sensitive

## Cc1ccc(C(=O)Cn2c3c(sc2=N)CCCC3)cc1 [pifithrin alpha]
Podocytes [1]
  ICN1 induced increase in annexinV positive cell number: decreased
p21
  TGFβ induced increase in p21 protein expression: blocked
Podocytes [3]
  TGFβ induced increase in annexinV positive cell number: prevented

## Z-vad
Podocytes [1]; podocytes with tamoxifen-induced ICN1, pretreatment with Z-vad (10 μM) or Z-LEHD (10 μM)
  ICN1 induced apoptosis (AnnexinV/GFP positive cells): prevented

— US8377886B2, “Use of gamma secretase inhibitors and notch pathway inhibitors for treatment and prevention of renal disease” (Albert Einstein College of Medicine of Yeshiva University, priority 2007, dated 2013)
